Experiment [1] concerns the target T1, Glucagon-1 (Xenopus laevis, UniProt O42143).
T1 sequence (O42143 whole entry): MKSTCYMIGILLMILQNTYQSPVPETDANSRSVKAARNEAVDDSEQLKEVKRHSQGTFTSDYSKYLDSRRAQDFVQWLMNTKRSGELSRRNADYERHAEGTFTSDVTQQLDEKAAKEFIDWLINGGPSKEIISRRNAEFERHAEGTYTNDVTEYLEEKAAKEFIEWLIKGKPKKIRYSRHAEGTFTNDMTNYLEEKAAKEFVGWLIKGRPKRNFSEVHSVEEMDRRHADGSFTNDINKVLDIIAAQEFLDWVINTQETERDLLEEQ
Briefly: Inhibition of Xenopus laevis GLP-1A (1 to 37 residues).

Experiment [2] can be described thus: Inhibition of Ornithorhynchus anatinus GLP-1.
For experiment [3], the target named is T1, Glucagon-1. Briefly: Inhibition of Xenopus laevis GLP-1B (1 to 32 residues).
Experiment [4] deals with T1, Glucagon-1. Briefly: Inhibition of Xenopus laevis GLP-1C (1 to 30 residues).

Results on five compounds are retold here after ChEMBL document CHEMBL6083179, “Glucagon-like peptide-1 analogs: Miracle drugs are blooming?” (Eur J Med Chem, 2024).

As usually defined, the IC50 is the concentration that gives 50% inhibition. Turning to `CC[C@H](C)[C@H](NC(=O)[C@H](CC(C)C)NC(=O)[C@H](Cc1c[nH]c2ccccc12)NC(=O)[C@H](CC(=O)O)NC(=O)[C@@H](NC(=O)[C@H](Cc1ccccc1)NC(=O)[C@H](CCC(=O)O)NC(=O)[C@H](CCCCN)NC(=O)[C@H](C)NC(=O)[C@H](C)NC(=O)[C@H](CCCCN)NC(=O)[C@H](CCC(=O)O)NC(=O)[C@H](CC(=O)O)NC(=O)[C@H](CC(C)C)NC(=O)[C@H](CCC(N)=O)NC(=O)[C@H](CCC(N)=O)NC(=O)[C@@H](NC(=O)[C@@H](NC(=O)[C@H](CC(=O)O)NC(=O)[C@H](CO)NC(=O)[C@@H](NC(=O)[C@H](Cc1ccccc1)NC(=O)[C@@H](NC(=O)CNC(=O)[C@H](CCC(=O)O)NC(=O)[C@H](C)NC(=O)[C@@H](N)Cc1c[nH]cn1)[C@@H](C)O)[C@@H](C)O)C(C)C)[C@@H](C)O)[C@@H](C)CC)C(=O)N[C@@H](CC(N)=O)C(=O)NCC(=O)NCC(=O)N1CCC[C@H]1C(=O)N[C@@H](CO)C(=O)N[C@@H](CCCCN)C(=O)N[C@@H](CCC(=O)O)C(=O)N[C@H](C(=O)N[C@H](C(=O)N[C@@H](CO)C(=O)O)[C@@H](C)CC)[C@@H](C)CC`, half-maximal inhibition in experiment [1] (IC50) was put at 12.7 nM.

Consider H-HSEGTFTNDVTRLLEEKATSEFIAWLLKGLE-OH, for which the IC50 in experiment [2] turned out to be 7.4 nM.

Turning to `CC[C@H](C)[C@H](NC(=O)[C@H](CC(C)C)NC(=O)[C@H](Cc1c[nH]c2ccccc12)NC(=O)[C@H](CCC(=O)O)NC(=O)[C@@H](NC(=O)[C@H](Cc1ccccc1)NC(=O)[C@H](CCC(=O)O)NC(=O)[C@H](CCCCN)NC(=O)[C@H](C)NC(=O)[C@H](C)NC(=O)[C@H](CCCCN)NC(=O)[C@H](CCC(=O)O)NC(=O)[C@H](CCC(=O)O)NC(=O)[C@H](CC(C)C)NC(=O)[C@H](Cc1ccc(O)cc1)NC(=O)[C@H](CCC(=O)O)NC(=O)[C@@H](NC(=O)[C@@H](NC(=O)[C@H](CC(=O)O)NC(=O)[C@H](CC(N)=O)NC(=O)[C@@H](NC(=O)[C@H](Cc1ccc(O)cc1)NC(=O)[C@@H](NC(=O)CNC(=O)[C@H](CCC(=O)O)NC(=O)[C@H](C)NC(=O)[C@@H](N)Cc1c[nH]cn1)[C@@H](C)O)[C@@H](C)O)C(C)C)[C@@H](C)O)[C@@H](C)CC)C(=O)N[C@@H](CCCCN)C(=O)NCC(=O)N[C@@H](CCCCN)C(=O)N1CCC[C@H]1C(=O)N[C@@H](CCCCN)C(=O)O`, it took 2.9 nM to reach half-maximal inhibition in experiment [3] (IC50).

In turn, H-HFDGVYTDYFSRYLEEKATNEFIDWLLKGQE-OH showed a half-maximal inhibitory concentration (IC50) in experiment [2] of 7.4 nM.

In turn, H-HAEGTFTNDMTNYLEEKAAKEFVGWLIKGRPK-OH gave a 50% inhibitory concentration (IC50) in experiment [4] of 43.4 nM.
